In US8158589B2, “Peptides with the capacity to bind to transforming growth factor β1 (TGF-β1)” (Proyecto Biomedicine Cima, S.L., priority 2003, dated 2012):
Ends that are not written are not given here.

Columns and labels:
[1] = biological target: T1, TGF-β1 (Mus musculus, UniProt P04202); assay: Model of acute liver damage induced by CCl4, type I collagen mRNA by real time PCR; assay type: in vivo, mice; parameters: key to % Inhibition of type I collagen mRNA induction (in vivo TGF-β1 biological activity): Neg: negative; settings: for % Inhibition of type I collagen mRNA induction (in vivo TGF-β1 biological activity): Balb/C mice, oral CCl4, 50 μg of peptide every 24 h, sacrifice after 72 hours; for inhibition of the biological activity of TGF-β1 in vivo (in words): acute liver damage, type I collagen mRNA
T1 construct: from tissue; host or cells: liver of Balb/C mice (CCl4 model); lung of C57BL/6 mice (bleomycin model)
Method: Acute liver damage generates a cascade of effects and physiological responses, including elevations in the concentrations of TGF-β1. This elevation is responsible for the expression of the type I collagen gene, among others. In this model of acute liver damage, female Balb/C mice weighing 25 to 30 g, were orally administered a dose of 2 μl of CCl4 (per gram of body weight) dissolved in an equivalent volume of corn oil (volumetric ratio of 1:1). The control group received an equivalent volume of corn oil only, and the treated groups received (following the single oral administration of CCl4 in corn oil) 50 μg of peptide in 500 μl of 1% physiological saline solution in DMSO (dimethyl sulfoxide) every 24 h. After 72 hours all animals were sacrificed, and the liver samples were processed. To evaluate mRNA expression, liver tissue was frozen in liquid nitrogen and stored at −80° C. until further use. Other liver tissue samples were stored in OCT® or Tissue-Tek® (Sakura Finetek B.V.) and processed in the same way as the samples used for mRNA studies. Other liver samples were fixed in 10% buffered formalin solution, embedded in paraffin and processed for their histological evaluation. The amount of mRNA encoding type I collagen was quantified in all groups using a quantitative polymerase chain reaction (PCR) technique. […] The capacity of the testing peptides to block the acute damage, as assessed by measuring the levels of induced type I collagen mRNA was quantified by real time PCR. […] The peptides tested were obtained by conventional solid peptide synthesis procedures (Merrifield R B. J Am Chem Soc 1963; 85:2149-2154; Atherton E et al. J Chem Soc Perkin Trans 1981; 1:538-546).

[2] = biological target: T2, TGF-β1 (Homo sapiens, UniProt P01137); assay: Biopanning of phage-displayed 15-aa peptide library on biotinylated TGF-β1, number of colonies per sequence; assay type: binding; parameters: purchased Roche; host or cells: added to Mv-1-Lu (CCL-64) mink lung epithelial cells; settings: clones carrying the sequence among 108 colonies after the last biopanning cycle; approximate indication of affinity for TGF-β1
Source text: These libraries comprise a plurality of filamentous bacteriophages (M13), each one containing a peptide genetically fused to a protein of the virus envelope—in this case bound to the N-terminal end of envelope protein pIII (FIG. 1). […] In the phage libraries, the sequence encoding the peptide originates from a sequence degenerated in each one of the 15 positions with the 20 natural amino acids, thus allowing the presentation of 1.1×10^12 possible sequences of 15 amino acids in different phages. The physical ratio, 1:1, between the peptide sequence and the DNA encoding it within the bacteriophage allows the selection (from a broad range of variants) of those sequences that specifically bind to TGF-β1. This process is carried out via an in vitro selection protocol known as “biopanning”.
This technique involves incubating a set of phages representative (to practical effects) of all the 15-aa variants, in a plate blocked with streptavidin (10 μg/ml in 0.1 M NaHCO3, during 2 h at room temperature) to which biotinylated TGF-β1 is added. […] TGF-β1 contacts the peptides carried by the phages at a concentration of […]. After about 12 hours incubation, unbound phages are eliminated by 5 washings with PBS/Tween (phosphate buffered saline/polyoxyalkylene derivatives of sorbitan fatty acid esters). […] The eluted phages are then amplified by infection in a bacterial strain (E. coli). The process is repeated three cycles so that an enrichment in the content of phages which specifically bind, and with high affinity, to TGF-β1 is achieved (FIG. 3). […] Thus, the phages selected in each cycle show more and more affinity for TGF-β1. At the end of the process, phages which have been selected for their affinity for TGF-β1, are sequenced by using primers, after isolation by tetracycline resistance of the genetically modified phages after infecting E. coli cells. […] The number of times which a sequence is repeated, corresponding to a 15 amino acids peptide carried by each clone, from the total of sequenced colonies is an indication of the degree of relative affinity of said 15 amino acids sequence for TGF-β1.
The selection of clones, obtained from the “biopanning”, was carried out by selection of the bacterial colonies infected with the phages in the presence of a bacterial antibiotic; the bacteria resistance is acquired by a tetracycline resistance gene encoded by the phage genome. Thus, only those colonies infected with bacteriophages are able to grow. This means that each colony contains the genome of only one phage coding for only one peptide presented in its surface.
A total number of 108 colonies of phage-infected bacteria were obtained from the last selection cycle of “biopanning”. The sequence of the regions coding for the peptides present in the pIII protein was carried out using primers identified with SEQ ID NO: 23. This table also reflects the number of colonies (clones) carrying said sequences.
The number of clones (colonies) of each sequence gives an approximate indication of the degree of affinity of the peptide for TGF-β1, that is, the more colonies the more binding affinity.

[3] = biological target: T2, TGF-β1; assay type: cell-based; parameters: purchased Roche; host or cells: added to Mv-1-Lu (CCL-64) mink lung epithelial cells; settings: for inhibition of the biological activity of TGF-β1 in vitro (in words): Mv-1-Lu proliferation
Source text: The cell line Mv-1-Lu (CCL-64, […], Virginia, USA) derives from mink pulmonary epithelium, grows as a monolayer, and responds to the presence of TGF-β1 by decreasing its proliferation (FIG. 5). Thus, the peptide-mediated inhibition of this cytokine is able to restore cell growth and reflects the capacity of the different peptides to inhibit the biological activity of TGF-β1 in vitro. The peptides tested were obtained by peptide synthesis, in accordance to conventional procedures (Merrifield R B. J Am Chem Soc 1963; 85:2149-2154; Atherton E et al. J Chem Soc Perkin Trans 1981; 1:538-546).
The Mv-1-Lu cells are cultured to confluence in complete medium [RPMI-1640 supplemented with L-glutamine, sodium pyruvate, antibiotics and 10% fetal bovine serum (FBS)] at 37° C. and in 5% CO2 in 162 cm^2 bottles (Costar Corporation, CA, USA). Following trypsinization, the cells are cultured in 200 μl of complete medium in 96-well plates at an initial density of 5,000 cells/well at 37° C. and in 5% CO2 during 6 hours to ensure adhesion. Then, different concentrations of the peptides to be tested are added, starting from 200 μg/ml, and following 200 pg/ml of TGF-β1 (Roche) are added. After 12 hours of incubation 1 μCi of methyl-3H-thymidine (Amersham Life Science, Buckinghamshire, United Kingdom) is added per well in 25 μl of clean medium (RPMI-1640). The plate is incubated for 12 more hours under the same conditions. Finally, the cells are harvested (Filtermate 196 Harvester, Packard), transferring the tritiated thymidine, incorporated in the course of DNA synthesis, to plates (UniFilter-96 GF/C®, Perkin Elmer). Following the addition of scintillation fluid, the radioactivity was quantified using a scintillation counter (Top Count, Microplate Scintillation Counter, Packard). As positive and negative control, use was made of the incorporation of tritiated thymidine in the absence and presence of TGF-β1, respectively. The inhibition of TGF-β1 activity in this test was calculated based on the following formula: […]
The negative control represents the incorporation of tritiated thymidine in the presence of TGF-β1 but in the absence of peptide, whereas the positive control refers to the incorporation of tritiated thymidine in the absence of TGF-β1 and peptide. Thus, according to the capacity of the peptides to revert the cytokine repressor effect on Mv-1-Lu cell line proliferation, percentage of TGF-β1 biological activity inhibition by the peptides can be measured (Table 2).
Comparisons have been made of the activity of truncated peptides (derived from peptide sequence SEQ ID NO: 17) versus the complete sequence, in terms of the capacity to revert the suppressor effect of TGF-β1 upon proliferation of the Mv-1-Lu cell line. To this effect, and to determine the minimum sequence of peptide SEQ ID NO: 17 capable of inhibiting the biological activity of TGF-β1 in vitro, truncated versions of this peptide were synthesized, with truncation at the N-terminal end, C-terminal end or in both ends of the molecule. The peptides tested were obtained by peptide synthesis following conventional procedures (Merrifield R B. J Am Chem Soc 1963; 85:2149-2154; Atherton E et al. J Chem Soc Perkin Trans 1981; 1:538-546). Following the same methodology described in Example 2, the activity of truncated peptides versus the complete sequence of the peptide SEQ ID NO: 17 was quantified, in terms of a proliferation assay of the Mv-1-Lu cell line.

T1 sequence (P04202 279-390 limits assumed): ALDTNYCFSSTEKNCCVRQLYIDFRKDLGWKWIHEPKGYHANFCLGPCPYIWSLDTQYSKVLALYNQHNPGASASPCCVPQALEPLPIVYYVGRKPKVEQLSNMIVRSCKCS
T2 sequence (P01137 279-390 limits assumed, species assumed): as the sequence (P04202 279-390 limits assumed) above, with S75A counted along it

Sequence	% Inhibition of type I collagen mRNA induction (in vivo TGF-β1 biological activity) [1]	No. colonies [2]	inhibition of the biological activity of TGF-β1 in vivo (in words) [1]	% Inhibition of in vitro TGF-β1 biological activity [3] [%]	inhibition of the biological activity of TGF-β1 in vitro (in words) [3]
DRRIFWWSLRSAPGA [SEQ ID NO: 1]	0.69%	6			
DRRIFWWSNRSAPGA [SEQ ID NO: 2]	36.6 ± 30.7%	1	only inhibitory activity		
FIPRSSWYERA [SEQ ID NO: 30, FIPRSSWYERA]				−0.3 ± 3.0	
FVWVRFHRLPRQIYT [SEQ ID NO: 10]	Neg	1			
GWHSLLHSRYHRLAA [SEQ ID NO: 9]	26.59%	1			
GWITFHRRHHDRVLS [SEQ ID NO: 15]	14.26%	1			
HRISHFAHRYLARLH [SEQ ID NO: 7]	Neg	2			
HVRLHHYLRHRSLPN [SEQ ID NO: 21]	Neg	1			
IPRSSWYERA [SEQ ID NO: 31, IPRSSWYERA]				3.4 ± 1.4	
IWFIPRSSWYE [SEQ ID NO: 27, IWFIPRSSWYE]				1.4 ± 2.5	
IWFIPRSSWYERA [SEQ ID NO: 26, IWFIPRSSWYERA]				4.5 ± 1.8	
KRIWFIPRS [SEQ ID NO: 36, KRIWFIPRS]				6.2 ± 2.5	
KRIWFIPRSS [SEQ ID NO: 35, KRIWFIPRSS]				6.0 ± 0.4	
KRIWFIPRSSWY [SEQ ID NO: 34, KRIWFIPRSSWY]			capable of inhibiting the expression of collagen type I mRNA	34.4 ± 7.9	
KRIWFIPRSSWYER [SEQ ID NO: 33, KRIWFIPRSSWYER]				31.4 ± 7.0	inhibitory activity
MPLSRYWWLFSHRPR [SEQ ID NO: 18]	Neg	1			only inhibitory activity
PPYHRFWRGHRHAVQ [SEQ ID NO: 6]	74.94 ± 25.3%	12	inhibitory capacity		inhibitory capacity
PRSSWYERA [SEQ ID NO: 32, PRSSWYERA]				3.8 ± 1.6	
RHLSHFKWLRSHGLD [SEQ ID NO: 19]	12.12%	1			
RIWFIPRSSWYER [SEQ ID NO: 25, RIWFIPRSSWYER]				6.2 ± 1.5	
RIWFIPRSSWYERA [SEQ ID NO: 24, RIWFIPRSSWYERA]				9.4 ± 0.4	
RLHGHRSHRFTHVAQ [SEQ ID NO: 16]	Neg	1			
RRFHFHSRMVAVDNS [SEQ ID NO: 20]	1.41%	1			
RRWVRYPVHLHSPIV [SEQ ID NO: 5]	Neg	1			
VPMALNHGVYVMVSS [SEQ ID NO: 22]	Neg	1			
WFIPRSSWY [SEQ ID NO: 28, WFIPRSSWY]				3.1 ± 0.9	
WFIPRSSWYERA [SEQ ID NO: 29, WFIPRSSWYERA]				2.7 ± 1.8	
WHKYFLRRPLSVGLG [SEQ ID NO: 12]	Neg	1			
WHWRHRIPLQLAAGR [SEQ ID NO: 8]	Neg	2			
